{"source": "patent US9457010B2", "about": "“Compositions for use in treating or preventing metabolic stress-induced lung injury and methods for increasing physical capacity of mammalian livestock” (Nutri-fit GmbH & Co. KG, priority 2009, dated 2016)", "origin": "cited, not measured here", "test_system": "pulmonary function", "conditions": "3 weeks isocaloric diet; endotoxin challenge"}
{"smiles": "CCCCC/C=C\\C/C=C\\CCCCCCCC(=O)O", "note": "[linoleate]", "values": [{"measurement": "histological evidence in lung", "result": "vascular congestion, intra-alveolar edema and alveolar septa thickening"}]}
